Key:
[1] = Antiinflammatory activity in RBL2H3 cells assessed as inhibition of degranulation; format: functional, cell-based; settings: Rattus norvegicus, RBL-2H3
[2] = tested on: RAW264.7; test: Antiinflammatory activity in mouse RAW264.7 cells assessed as inhibition of LPS-stimulated nitric oxide production after 18 hrs by Griess assay; format: functional, cell-based; settings: RAW264.7, 18 h
[3] = tested on: RAW264.7; test: Antiinflammatory activity in mouse RAW264.7 cells assessed as inhibition of LPS-stimulated nitric oxide production at 2 uM after 18 hrs by Griess assay relative to control; format: functional; settings: RAW264.7, 18 h
[4] = tested on: RAW264.7; test: Cytotoxicity against mouse RAW264.7 cells assessed as cell viability at 20 uM after 24 hrs by MTS assay; format: cell-based; settings: raw264.7, 24 h
[5] = tested on: RAW264.7; test: Antiinflammatory activity in mouse RAW264.7 cells assessed as inhibition of LPS-stimulated nitric oxide production at 20 uM after 18 hrs by Griess assay relative to control; format: functional; settings: RAW264.7, 18 h
[6] = tested on: RAW264.7; test: Cytotoxicity against mouse RAW264.7 cells assessed as cell viability at 20 uM after 24 hrs by MTS assay; settings: raw264.7, 24 h

Compound | IC50 [1] | IC50 [2] | inhibition at 2 µM [3] | Activity [4] | inhibition at 20 µM [5] | Activity [6]
C=CC(C)(C)c1cc(/C=C/C(=O)c2ccc(O)cc2)c(OC)cc1O [LICOAGROCHACONE A] | 17 µM |  |  |  |  | 
COc1c(/C=C/C(=O)c2ccc(O)c(CC=C(C)C)c2)ccc(O)c1O [LICOCHALCONE D] | 21 µM | 4.85 µM | 57.8% | Toxic | 95.4% | Toxic
COc1c(/C=C/C(=O)c2ccc(O)cc2O)ccc(O)c1O |  | 4.72 µM | 71.1% | Non-toxic | 96.5% | 
C=CC(C)(C)c1cc(C(=O)/C=C/c2ccc(O)c(O)c2OC)ccc1O |  | 2.37 µM | 75.9% | Toxic | 96.1% | Toxic
COc1c(/C=C/C(=O)c2ccc(O)c(O)c2)ccc(O)c1O |  | 10.1 µM | -6% | Non-toxic | 92.5% | 
COc1c(/C=C/C(=O)c2ccc(O)cc2)ccc(O)c1CC=C(C)C | 24 µM |  |  |  |  | 
COc1c(/C=C/C(=O)c2ccc(O)cc2)ccc(O)c1O | > 30 µM | 9.94 µM | 17.2% | Non-toxic | 69.6% | 
COc1cc(O)ccc1/C=C/C(=O)c1ccc(O)cc1 [ECHINATIN] | > 30 µM |  |  |  |  | 
C=C(C)C(C)c1cc(C(=O)/C=C/c2ccc(O)c(O)c2OC)ccc1O (stereo not drawn) |  | 4.95 µM | 56.5% | Toxic | 94.3% | Toxic
O=C(/C=C/c1ccc(O)cc1)c1ccc(O)cc1O [ISOLIQUIRITIGENIN] | > 30 µM |  |  |  |  | 

— ChEMBL document CHEMBL3098018, “Synthesis of licochalcone analogues with increased anti-inflammatory activity” (Bioorg Med Chem Lett, 2014)
